Key:
young rice plant = experiment: Herbicidal test for paddy field; assay type: in vivo; conditions: 500 g/ha, dropwise addition to paddy water at 1.5 leaf stage of barnyard grass; glass house 25° C., 3 weeks; rank 0-5 vs non-treated district; note: key: 0: normal development; 1: Less damaged; 2: Slightly damaged; 3: Moderately damaged; 4: Severely damaged; 5: All killed
Experimental: Then, the pots were filled with water to a depth of 3 cm. […] These plants were controlled in a glass house at an average temperature of 25° C. for 3 weeks, and then herbicidal effects thereof were investigated. The herbicidal effects are evaluated according to the following 6 ranks as compared with non-treated district. […] Incidentally, “-” in the column means not investigated.

Cyperus serotinus Rottb. = experiment: Herbicidal test for paddy field; assay type: in vivo; conditions: 500 g/ha, dropwise addition to paddy water at 1.5 leaf stage of barnyard grass; glass house 25° C., 3 weeks; rank 0-5 vs non-treated district; note: key: 0: normal development; 1: Less damaged; 2: Slightly damaged; 3: Moderately damaged; 4: Severely damaged; 5: All killed
In short: (§1)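 Wettable-powder formulations in water with 0.05% surfactant were dripped onto flooded (3 cm) Ube alluvial-soil pots at 500 g/ha, applied at barnyard grass 1.5-leaf stage. Plants were kept in a glasshouse at 25° C. for 3 weeks. Damage was scored 0 (normal) to 5 (all killed) versus untreated plants.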

arrowhead = experiment: Herbicidal test for paddy field; assay type: in vivo, Sagittaria pygmaea; conditions: 500 g/ha, dropwise addition to paddy water at 1.5 leaf stage of barnyard grass; glass house 25° C., 3 weeks; rank 0-5 vs non-treated district; note: key: 0: normal development; 1: Less damaged; 2: Slightly damaged; 3: Moderately damaged; 4: Severely damaged; 5: All killed
In short: as §1

cotton = experiment: Soil treatment test for upland field; assay type: in vivo; conditions: 500 g/ha, 3 weeks, glass house 25° C. Note: key: 0: normal development; 1: Less damaged; 2: Slightly damaged; 3: Moderately damaged; 4: Severely damaged; 5: All killed.
In short: (§2)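 Surface spray of freshly sown alluvial soil, 500 g/ha compound, water containing 0.05% surfactant. Visual 0–5 damage rating versus untreated after 3 weeks, glasshouse at 25° C average.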

blackgrass [1] = experiment: Soil treatment test for upland field; assay type: in vivo, Alopecurus aegualis; design: key: 0 = normal development, 5 = all killed; conditions: 500 g/ha, 3 weeks, glass house 25° C.
In short: as §2

common lambsquarters = experiment: Soil treatment test for upland field; assay type: in vivo, Chenopodium album; design: key: 0 = normal development, 5 = all killed; conditions: 500 g/ha, 3 weeks, glass house 25° C.
In short: as §2

velvetleaf = experiment: Soil treatment test for upland field; assay type: in vivo, Abutilon theophrasti; design: key: 0 = normal development, 5 = all killed; conditions: 500 g/ha, 3 weeks, glass house 25° C.
In short: as §2

morning glory = experiment: Soil treatment test for upland field; assay type: in vivo, Ipomoea spps.; design: key: 0 = normal development, 5 = all killed; conditions: 500 g/ha, 3 weeks, glass house 25° C.
In short: as §2

barnyardgrjass = experiment: Foliar spread test for upland field; assay type: in vivo, Eschinochloa crusgalli; design: key: 0 = normal development, 5 = all killed (6 ranks vs. untreated); conditions: foliar spray, 500 ppm, 3 weeks, glass house 25° C.
In short: (§3)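 Plants grown about 2 weeks at 25 °C in volcanic ash soil were sprayed with wettable powder diluted to 500 ppm in water with 0.5% surfactant. After 3 weeks at 25 °C, damage was scored 0 (normal) to 5 (all killed) against untreated plants.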

green foxtail = experiment: Foliar spread test for upland field; assay type: in vivo, Setaria viridis; design: key: 0 = normal development, 5 = all killed (6 ranks vs. untreated); conditions: foliar spray, 500 ppm, 3 weeks, glass house 25° C.
In short: as §3

blackgrass [2] = experiment: Foliar spread test for upland field; assay type: in vivo, Alopecurus aegualis; design: key: 0 = normal development, 5 = all killed (6 ranks vs. untreated); conditions: foliar spray, 500 ppm, 3 weeks, glass house 25° C.
In short: as §3

bulrush = experiment: Herbicidal test for paddy field; assay type: in vivo, Scrips juncoides; conditions: 500 g/ha, dropwise addition to paddy water at 1.5 leaf stage of barnyard grass; glass house 25° C., 3 weeks; rank 0-5 vs non-treated district
In short: as §1

soybean = experiment: Soil treatment test for upland field; assay type: in vivo; design: key: 0 = normal development, 5 = all killed; conditions: 500 g/ha, 3 weeks, glass house 25° C.
In short: as §2

Row | Structure (SMILES) | Effects Young rice plant (young rice plant) | Effects Cyperus serotinus Rottb. (Cyperus serotinus Rottb.) | Effects Arrowhead (arrowhead) | Effects Sotton (cotton) | Effects Blackgrass (blackgrass [1]) | Effects Common lambsquarters (common lambsquarters) | Effects Velvetleaf (velvetleaf) | Effects Morning glory (morning glory) | Effects Barnyardgrass (barnyardgrjass) | Effects Green foxtail (green foxtail) | Effects Blackgrass (blackgrass [2]) | Effects Bulrush (bulrush) | Effects Soybean (soybean)
1 | Fc1ccc2nc(-c3cccc(Oc4cccc(C(F)(F)F)c4)n3)oc2c1 [I-a-6, 6-(6-fluorobenzoxazol-2-yl)-2-(3-trifluoromethylphenoxy)pyridine] | 3 | 2 | 0 | 1 | 5 | 5 | 2 | 5 | 5 | 5 | 5 |  | 
2 | FC(F)(F)c1cccc(Oc2cccc(-c3nc4cc(Cl)ccc4o3)n2)c1 [I-a-3, 6-(5-chlorobenzoxazol-2-yl)-2-(3-trifluoromethylphenoxy)pyridine] | 2 | 0 | 0 |  | 4 | 5 | 3 | 3 | 1 | 3 | 1 | 0 | 3
3 | Fc1ccc2nc(-c3cccc(Oc4ccc(F)c(C(F)(F)F)c4)n3)oc2c1 [I-a-7] |  | 0 | 0 | 0 | 4 | 5 | 0 | 1 | 1 | 3 | 1 | 0 | 2
